Experimental data: patent publication US6136798A, “Compounds inhibiting the association of the PDGF receptor and phosphatidylinositol 3-kinase and their use” (Warner-Lambert Company, priority 1999, dated 2000)

Key:
[1] = target: T1, PDGF-β receptor tyrosine kinase intracellular domain / p85 SH2 fusion protein (PDGF Receptor/PI3-Kinase Association) (Homo sapiens, UniProt P27986); assay: p85 SH2--PDGF-β Receptor Binding Assay; conditions: [35S]p85 C-terminal SH2 fusion protein binding to phosphorylated PDGF-β receptor; 25° C., 20 minutes
T1 construct: The pGEX plasmid expressing the carboxy-terminal SH2 of the p85 subunit of PI3-kinase; made in house; host or cells: p85 SH2-GST: E. coli; PDGF-β receptor intracellular domain: SF9 insect cells, obtained from L. T. Williams (UCSF)
T1 sequence (P27986 624-718 limits assumed): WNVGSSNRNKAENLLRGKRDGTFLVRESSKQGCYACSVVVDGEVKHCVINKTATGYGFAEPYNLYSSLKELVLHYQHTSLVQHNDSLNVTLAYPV
Description: The pGEX plasmid expressing the carboxy-terminal SH2 of the p85 subunit of PI3-kinase in a glutathione-s-transferase (GST) fusion protein was used in these studies. Expression and purification of the fusion protein was performed as previously described by Zhu, et al., J. Biol. Chem., 1993;268:1175. To prepare [^35 S]p85 fusion proteins, a 125 mL overnight culture of E. coli expressing the p85-GST fusion protein was added to 1000 mL of LB broth containing 100 μg/mL ampicillin. The cultures were incubated at 37° C. until reaching a density of A600 =1.0. 1 mM of isopropyl-β-D-thiogalactoside was added and 15 minutes later, 10 mCi of trans ^35 S-label was added and cultures incubated for an additional 3 hours at 37° C. The cells were then lysed by sonication and fusion proteins purified over glutathione-agarose beads.
Lysates from SF9 insect cells expressing the PDGF-β receptor tyrosine kinase intracellular domain, obtained from L. T. Williams at the University of California at San Francisco, were incubated with M2 affinity beads and the complexes were washed several times with Tris buffer containing protease inhibitors and sodium orthovanadate. Complexes were centrifuged and resuspended in N-[2-hydroxyethyl]piperazine-N'-[2-ethane sulfonic acid] (HEPES) buffer containing 1 mM adenosine triphosphate (ATP), 10 mM MnCl2, and 5 mM MgCl2 to stimulate phosphorylation of the PDGF receptor.
Binding of [^35 S]p85 SH2 fusion proteins to the phosphorylated PDGF-β receptor tyrosine kinase intracellular domain was assayed in Hepes buffer containing ethylene diamine tetraacetic acid (EDTA), NP-40 and […] of each of the protease inhibitors, PMSF, pepstatin, leupeptin, and aprotinin. Binding assays were performed in 96-well millipore filter plates in a final volume of […] of HEPES buffer containing 135 μL phosphorylated PDGF receptor-beads complex (1 μg receptor/well), 10 μL [^35 S]p85 SH2 fusion protein (30,000 cpm/well), and 5 μL of peptide inhibitor as indicated. Samples were incubated at 25° C. for 20 minutes with continuous rocking. Binding was terminated by filtration through the filter plates using a millipore multiscreen filtration manifold Millipore, Bedford, Mass.). Filter plates were washed four times with 0.15 mL Hepes buffer followed by the addition of 40 μL hi-load scintillant and radioactivity retained on the filters was counted in a Wallac 1450 Microbeta counter (Wallac Inc, Gaithersburg, Md.). Total binding was defined as [^35 S]p85 fusion protein bound to the PDGF-β receptor-bead complex retained on the filter plate after washing. Nonspecific binding was defined as radioactivity retained on the filter plates in the presence of excess unlabeled p85 fusion protein. Specific binding was defined as total binding minus nonspecific binding. IC50 values were calculated by weighted nonlinear regression curve fitting.

[2] = target: T2, PDGF Receptor/PI 3-Kinase association in rat aortic smooth muscle cells (Rattus norvegicus, UniProt Q63787); assay: PDGF Receptor/PI 3-Kinase Cell Association Assay; assay type: cell-based; conditions: RASMC, PDGF-BB 30 ng/mL 5 minutes; for inhibition at 25 µM: printed in the Cellular IC50 column, read-out: Inhibition of PDGF Receptor/PI3-Kinase Association (Cellular)
T2 construct: endogenous in cells; host or cells: rat aortic smooth muscle cells (RASMC), primary, passages 5 to 20
T2 sequence (Q63787 whole entry): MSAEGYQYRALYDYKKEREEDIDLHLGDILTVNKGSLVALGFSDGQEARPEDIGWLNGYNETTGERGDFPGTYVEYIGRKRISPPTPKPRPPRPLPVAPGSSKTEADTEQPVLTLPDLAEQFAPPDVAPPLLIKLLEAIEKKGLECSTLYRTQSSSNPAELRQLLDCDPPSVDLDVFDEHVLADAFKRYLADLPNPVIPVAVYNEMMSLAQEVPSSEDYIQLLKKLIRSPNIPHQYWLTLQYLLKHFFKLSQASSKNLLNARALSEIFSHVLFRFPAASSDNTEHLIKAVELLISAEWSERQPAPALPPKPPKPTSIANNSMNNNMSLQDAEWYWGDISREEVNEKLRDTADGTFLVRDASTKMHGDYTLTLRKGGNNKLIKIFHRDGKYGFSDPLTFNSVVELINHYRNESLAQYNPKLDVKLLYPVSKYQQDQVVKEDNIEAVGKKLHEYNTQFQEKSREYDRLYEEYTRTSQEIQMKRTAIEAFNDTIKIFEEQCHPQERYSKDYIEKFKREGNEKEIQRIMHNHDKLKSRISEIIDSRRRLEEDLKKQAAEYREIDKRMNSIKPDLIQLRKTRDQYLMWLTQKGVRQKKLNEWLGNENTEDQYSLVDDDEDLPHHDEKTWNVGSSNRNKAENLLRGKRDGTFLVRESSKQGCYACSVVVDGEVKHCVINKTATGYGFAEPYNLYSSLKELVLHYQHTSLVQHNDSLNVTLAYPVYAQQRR
Description: Smooth muscle cells were isolated from the thoracic aorta of rats (RASMC) and explanted according to the method of Ross, J. Biol. Chem., 1971;30:172-86. Cells were grown in Dulbecco's modified Eagle's medium (DMEM, Gibco) containing 10% fetal calf serum (FBS, Hyclone, Logan, Utah), 1% glutamine (Gibco) and 1% penicillin/streptomycin (Gibco). Cells were identified as smooth muscle cells by their "hill and valley" growth pattern and by fluorescent staining with a monoclonal antibody specific for SMC […] (Sigma). RASMC were used between passages 5 and 20 for all experiments. Test compounds were prepared in dimethylsulfoxide (DMSO) in order to achieve consistency in the vehicle and to ensure compound solubility. Appropriate DMSO controls were simultaneously evaluated with the test compounds.
Rat aortic smooth muscle cells were grown to confluency in 100 mm dishes. Growth medium was removed and replaced with serum-free medium and cells were incubated at 37° C. for an additional 24 hours. Test compounds were then added directly to the medium and cells incubated for an additional 24 hours. After 24 hours PDGF-BB was added at a final concentration of 30 ng/mL for 5 minutes at 37° C. to stimulated autophosphorylation of the PDGF receptor and association of PI 3-kinase to the phosphorylated receptors. […] Following incubation with ^125 I-protein-A, p85 protein levels were detected by phosphorimage analysis and protein bands quantitated via densitometry. […]

Compound	IC50 [1]	inhibition at 25 µM [2]	IC50 ([2]; 24 h compound, p85 immunoblot, read-out: Cellular IC50)
CCCCCCN(CCCCCC)C(=O)[C@H](C)NC(=O)[C@@H](NC(=O)[C@H](Cc1ccc(C(F)(F)P(=O)(O)O)cc1)NC(C)=O)C(C)C [Example 1, [1S-[1R*[R*(R*)]]]-[(4-{2-Acetylamino-2-[1-(1-dihexylcarbamoyl-ethylcarbamoyl)-2-methyl-propylcarbamoyl]-ethyl}-phenyl)-difluoro-methyl]-phosphonic acid]	0.45 ± 0.04 µM		
CCCCCN(CCCCC)C(=O)[C@H](C)NC(=O)[C@@H](NC(=O)[C@H](Cc1ccc(C(F)(F)P(=O)(O)O)cc1)NC(C)=O)C(C)C [Example 2, [1S-[1R*[R*(R*)]]]-[(4-{2-Acetylamino-2-[1-(1-dipentylcarbamoyl-ethylcarbamoyl)-2-methyl-propylcarbamoyl]-ethyl}-phenyl)-difluoro-methyl]-phosphonic acid]	0.29 ± 0.08 µM	30%	
CCCCCCCCN(CCCCCCCC)C(=O)[C@H](C)NC(=O)[C@@H](NC(=O)[C@H](Cc1ccc(C(F)(F)P(=O)(O)O)cc1)NC(C)=O)C(C)C [Example 3, [1S-[1R*[R*(R*)]]]-[(4-{2-Acetylamino-2-[1-(1-dioctylcarbamoyl-ethylcarbamoyl)-2-methyl-propylcarbamoyl]-ethyl}-phenyl)-difluoro-methyl]-phosphonic acid]	12.2 ± 0.9 µM		
CCCCCCN(CCCCCC)C(=O)[C@H](C)NC(=O)[C@@H](NC(=O)[C@H](Cc1ccc(OP(=O)(O)O)cc1)NC(C)=O)C(C)C [Example 4, [1S-[1R*[R*(R*)]]]-Phosphoric acid mono-(4-{2-acetylamino-2-[1-(1-dihexylcarbamoyl-ethylcarbamoyl)-2-methyl-propylcarbamoyl]-ethyl}-phenyl) ester]	0.08 ± 0.01 µM	27%	
CCCCN(CCCC)C(=O)[C@H](C)NC(=O)[C@@H](NC(=O)[C@H](Cc1ccc(OP(=O)(O)O)cc1)NC(C)=O)C(C)C [Example 6, [1S-[1R*[R*(R*)]]]-Phosphoric acid mono-(4-{2-acetylamino-2-[1-(1-dibutylcarbamoyl-ethyl-carbamoyl)-2-methyl-propylcarbamoyl]-ethyl}-phenyl) ester]	1.6 ± 0.32 µM		37.5 µM
CCCCCN(CCCCC)C(=O)[C@H](C)NC(=O)[C@@H](NC(=O)[C@H](Cc1ccc(OP(=O)(O)O)cc1)NC(C)=O)C(C)C [Example 8, [1S-[1R*[R*(R*)]]]-Phosphoric acid mono-(4-{2-acetylamino-2-[1-(1-dipentylcarbamoyl-ethyl-carbamoyl)-2-methyl-propylcarbamoyl]-ethyl}-phenyl) ester]	0.22 µM		
CCCCCCCCN(CCCCCCCC)C(=O)[C@H](C)NC(=O)[C@@H](NC(=O)[C@H](Cc1ccc(OP(=O)(O)O)cc1)NC(C)=O)C(C)C [Example 10, [1S-[1R*[R*(R*)]]]-Phosphoric acid mono-(4-{2-acetylamino-2-[1-(1-dioctylcarbamoyl-ethyl-carbamoyl)-2-methyl-propylcarbamoyl]-ethyl}-phenyl) ester]	3.5 ± 0.5 µM		
